Converted amounts (≈) assume the structure as drawn.
Experiments:
Type in all cases: functional
Bacillus pumilus [1] = test: Antibacterial activity against Bacillus pumilus MTCC 1456 assessed as growth inhibition after 24 hr by tube dilution method; details: MTCC 1456, 24 h
Bacillus subtilis [2] = test: Antibacterial activity against Bacillus subtilis MTCC 441 assessed as growth inhibition after 24 hr by tube dilution method; details: MTCC 441, 24 h
Staphylococcus aureus [3] = test: Antibacterial activity against Staphylococcus aureus MTCC 1430 assessed as growth inhibition after 24 hr by tube dilution method; details: MTCC 1430, 24 h
Pseudomonas aeruginosa [4] = test: Antibacterial activity against Pseudomonas aeruginosa MTCC 424 assessed as growth inhibition at 10 ug/mL after 48 hr by agar diffusion method; details: MTCC 424, 48 h, read-out: DIZ
Bacillus subtilis [5] = test: Antibacterial activity against Bacillus subtilis MTCC 441 assessed as growth inhibition at 10 ug/mL after 48 hr by agar diffusion method; details: MTCC 441, 48 h, read-out: DIZ
Pseudomonas aeruginosa [6] = test: Antibacterial activity against Pseudomonas aeruginosa MTCC 424 assessed as growth inhibition after 24 hr by tube dilution method; details: MTCC 424, 24 h
Micrococcus luteus [7] = test: Antibacterial activity against Micrococcus luteus MTCC 1538 assessed as growth inhibition after 24 hr by tube dilution method; details: MTCC 1538, 24 h
Escherichia coli = test: Antibacterial activity against Escherichia coli MTCC 1573 assessed as growth inhibition at 10 ug/mL after 48 hr by agar diffusion method; details: MTCC 1573, 48 h, read-out: DIZ
Staphylococcus aureus [8] = test: Antibacterial activity against Staphylococcus aureus MTCC 1430 assessed as growth inhibition at 10 ug/mL after 48 hr by agar diffusion method; details: MTCC 1430, 48 h, read-out: DIZ
Micrococcus luteus [9] = test: Antibacterial activity against Micrococcus luteus MTCC 1538 assessed as growth inhibition at 10 ug/mL after 48 hr by agar diffusion method; details: MTCC 1538, 48 h, read-out: DIZ
Pseudomonas fluorescens [10] = test: Antibacterial activity against Pseudomonas fluorescens MTCC 2421 assessed as growth inhibition at 10 ug/mL after 48 hr by agar diffusion method; details: MTCC 2421, 48 h, read-out: DIZ
Bacillus pumilus [11] = test: Antibacterial activity against Bacillus pumilus MTCC 1456 assessed as growth inhibition at 10 ug/mL after 48 hr by agar diffusion method; details: MTCC 1456, 48 h, read-out: DIZ
Pseudomonas fluorescens [12] = test: Antibacterial activity against Pseudomonas fluorescens MTCC 2421 assessed as growth inhibition after 24 hr by tube dilution method; details: MTCC 2421, 24 h
Aspergillus niger [13] = test: Antifungal activity against Aspergillus niger MTCC 2546 assessed as growth inhibition after 24 hr by tube dilution method; details: MTCC 2546, 24 h
Aspergillus niger [14] = test: Antifungal activity against Aspergillus niger MTCC 2546 assessed as growth inhibition at 10 ug/mL after 48 hr by agar diffusion method; details: MTCC 2546, 48 h, read-out: DIZ
Penicillium chrysogenum [15] = test: Antifungal activity against Penicillium chrysogenum MTCC 161 assessed as growth inhibition after 24 hr by tube dilution method; details: MTCC 161, 24 h
Penicillium chrysogenum [16] = test: Antifungal activity against Penicillium chrysogenum MTCC 161 assessed as growth inhibition at 10 ug/mL after 48 hr by agar diffusion method; details: MTCC 161, 48 h, read-out: DIZ

Structure (SMILES) | MIC (Bacillus pumilus [1]) [µg/mL] | MIC (Bacillus subtilis [2]) [µg/mL] | MIC (Staphylococcus aureus [3]) [µg/mL] | zone of inhibition at 10 µg/mL (Pseudomonas aeruginosa [4]) [mm] | zone of inhibition at 10 µg/mL (Bacillus subtilis [5]) [mm] | MIC (Pseudomonas aeruginosa [6]) [µg/mL] | MIC (Micrococcus luteus [7]) [µg/mL] | zone of inhibition at 10 µg/mL (Escherichia coli) [mm] | zone of inhibition at 10 µg/mL (Staphylococcus aureus [8]) [mm] | zone of inhibition at 10 µg/mL (Micrococcus luteus [9]) [mm] | zone of inhibition at 10 µg/mL (Pseudomonas fluorescens [10]) [mm] | zone of inhibition at 10 µg/mL (Bacillus pumilus [11]) [mm] | MIC (Pseudomonas fluorescens [12]) [µg/mL] | MIC (Aspergillus niger [13]) [µg/mL] | zone of inhibition at 10 µg/mL (Aspergillus niger [14]) [mm] | MIC (Penicillium chrysogenum [15]) [µg/mL] | zone of inhibition at 10 µg/mL (Penicillium chrysogenum [16]) [mm]
CCn1cc(C(=O)O)c(=O)c2cc(F)c(N3CCNCC3)cc21 [NORFLOXACIN] | 1.25 (≈ 3.91 µM) | 2.5 (≈ 7.83 µM) | 5 (≈ 15.7 µM) | 26 | 25 | 2.5 (≈ 7.83 µM) | 2.5 (≈ 7.83 µM) | 25 | 22 | 24 | 27 | 30 | 2.5 (≈ 7.83 µM) | – | – | – | –
OC(Cn1cncn1)(Cn1cncn1)c1ccc(F)cc1F [FLUCONAZOLE] | – | – | – | – | – | – | – | – | – | – | – | – | – | 2.5 (≈ 8.16 µM) | 22 | 1.25 (≈ 4.08 µM) | 23

Source: ChEMBL document CHEMBL3046001, “4-Thiazolidinone and 1-thia-3,4,9-triaza fluorene conjugates: synthesis, characterization and antimicrobial screening” (2013)
